Results from patent US6121279A, “Substituted 6-phenylphenanthridines” (Byk Gulden Lomberg Chemische Fabrik GmbH, priority 1997, dated 2000).

system: PDE 4; experiment: Inhibition of PDE 4 activity (method of Bauer and Schwabe, adapted to microtiter plates); assay type: biochemical; settings: Table A

Row | Structure (SMILES) | inhibitory concentration as -log IC50 (mol/l), Inhibition of PDE 4 activity
1 | CCOc1cc2c(cc1OC)C(c1ccc(C(=O)Nc3cccnc3)cc1)=NC1CCCCC21 (mixture of isomers) [Compound 6, (+/-)-cis-9-Ethoxy-8-methoxy-6-(4-pyrid-3-ylamidophenyl)-1,2,3,4,4a,10b-hexahydrophenanthridine] | 8.66
2 | CCOc1cc2c(cc1OC)C(c1ccc(S(N)(=O)=O)cc1)=N[C@H]1CCCC[C@@H]21 (racemic) [Compound 1, (+-)-cis-9-Ethoxy-8-methoxy-6-(4-sulfamoylphenyl)-1,2,3,4,4a,10b-hexahydrophenanthridine] | 8.55
3 | CCCN(CCC)S(=O)(=O)c1ccc(C2=N[C@H]3CCCC[C@H]3c3cc(OCC)c(OC)cc32)cc1 (racemic) [Compound 2, (+/-)-cis-9-Ethoxy-8-methoxy-6-(4-dipropylsulfamoylphenyl)-1,2,3,4,4a,10b-hexahydrophenanthridine] | 9.25
4 | CCOc1cc2c(cc1OC)C(c1ccc(S(=O)(=O)Nc3ccc(C)cc3)cc1)=N[C@H]1CCCC[C@@H]21 (racemic) [Compound 3, (+/-)-cis-9-Ethoxy-8-methoxy-6-(4-p-tolylsulfamoylphenyl)-1,2,3,4,4a,10b-hexahydrophenanthridine] | 9.24
5 | COc1cc2c(cc1OC)[C@@H]1CCCC[C@@H]1N=C2c1ccc(S(=O)(=O)Nc2ccc(C)cc2)cc1 (single isomer, unassigned) [Compound 5, (-)-cis-8,9-Dimethoxy-6-(4-p-tolylsulfamoylphenyl)-1,2,3,4,4a,10b-hexahydrophenanthridine] | 8.30
